In patent US20080234258A1, “Dihydroxyanthraquinones and Their Use” (priority 2005, published 2008):

Key:
[1] = system: pro-MMPs-1, -3, -9 and -13; details: rabbit articular chondrocytes; cited from earlier work
[2] = system: TIMP-1; details: rabbit articular chondrocytes; cited from earlier work
[3] = system: LPS-induced TNFα secretion; test: LPS Mouse Assay, serum TNFα by ELISA; type: in vivo; details: Balb C ByJ mice, 1 mg/kg LPS i.p., serum 2 hours after LPS
Description: (§1) 7 week old Balb C ByJ mice (24-28 g) were administered, either by oral (10 ml/kg) administration, with vehicle or test article. 30 minutes later, these animals were challenged with an intraperitoneal injection of 1 mg/kg LPS. 2 hours after LPS challenge, blood samples were collected under light isoflurane anaesthesia into normal tubes by retro-orbital puncture. Samples were allowed to clot at room temperature and then spun at 6000 g for 3 min at 4° C. Serum was stored at −20° C. until use. Serum TNFα and IL-10 levels were analysed in duplicate by ELISA technique.

[4] = system: IL-1β; test: LPS Mouse Assay, IL-1β levels; type: in vivo; details: 3, 10 and 30 mg/kg oral, Balb C ByJ mice, 1 mg/kg LPS i.p., serum 2 hours after LPS
Description: as §1

[5] = system: intra-plantar carrageenan induced paw oedema; test: Carrageenan Paw Assay; type: in vivo; details: 0.3 to 30 mg/kg oral gavage, male Wistar rats, paw measured 1-5 hours after carrageenan
Description: Fasted (18 hour) male Wistar rats (105-130 g) were weighed and a basal mercury plethysmometer reading was taken of the right hind paw by submerging the paw in the mercury up to the tibiotarsal joint. Subsequently, vehicles, reference items and test articles were administered by oral gavage (10 ml/kg). 30 minutes after treatment, 0.1 ml of 2% carrageenan in 0.9% saline was injected into the subplanatar area of the right hind paw. The right paw was measured again with the plethysmometer, at 1, 2, 3, 4 and 5 hours after carrageenan administration.

[6] = system: IL-1β and TNFα; details: human osteoarthritic synovium and chondrocytes; cited from earlier work
[7] = system: cytokine gene expression; details: model of lupus nephritis; cited from earlier work

| SMILES | production of pro-matrix metalloproteinases (pro-MMPs-1, -3, -9 and -13) [1] | production of tissue inhibitor of metalloproteinases (TIMP-1) [2] | effect on LPS-induced TNFα secretion ([3]; 30 mg/kg oral) | effect in carrageenan induced paw oedema model of inflammation [5] | also measured |
| --- | --- | --- | --- | --- | --- |
| CC(=O)Oc1cccc2c1C(=O)c1c(OC(C)=O)cc(C(=O)O)cc1C2=O [diacerein] | down-regulate | upregulating |  |  |  |
| COCCOC(=O)c1cc(OC(=O)C2CCOCC2)c2c(c1)C(=O)c1cccc(OC(=O)C3CCOCC3)c1C2=O [Example 3, 4,5-bis(tetrahydropyran-4-carbonyloxy)-9,10-dioxo-9,10-dihydroanthracene-2-carboxylic acid, 2-methoxyethyl ester] |  |  | produced an effect |  |  |
| O=C1c2cccc(OC(=O)C3CCOCC3)c2C(=O)c2c(OC(=O)C3CCOCC3)cc(C(=O)N3CCOCC3)cc21 [Example 1, 1,8-bis(tetrahydropyran-4-carbonyloxy)-3-(morpholine-4-carbonyl)-9,10-dioxo-9,10-dihydroanthracene] |  |  | produced an effect | dose-dependant effect | IL-1β levels from LPS stimulus [4]: reduced IL-1β levels |
| CCOC(=O)c1cc(OC(=O)C2CCOCC2)c2c(c1)C(=O)c1cccc(OC(=O)C3CCOCC3)c1C2=O [Example 4, 4,5-bis(tetrahydropyran-4-carbonyloxy)-9,10-dioxo-9,10-dihydroanthracene-2-carboxylic acid, ethyl ester] |  |  |  | dose-dependant effect |  |
| O=C(O)c1cc(O)c2c(c1)C(=O)c1cccc(O)c1C2=O [rhein, 1,8-dihydroxyanthraquinone-3-carboxylic acid] | down-regulate | upregulating |  |  | production of pro-inflammatory cytokines (IL-1β and TNFα) [6]: inhibit; cytokine gene expression [7]: inhibit |
| CCNC(=O)c1cc(OC(=O)C2CCOCC2)c2c(c1)C(=O)c1cccc(OC(=O)C3CCOCC3)c1C2=O [Example 2, 1,8-bis(tetrahydropyran-4-carbonyloxy)-3-ethylcarbamoyl-9,10-dioxo-9,10-dihydroanthracene] |  |  |  |  | effect on LPS-induced TNFα secretion ([3]; 10 mg/kg oral): inhibited |
